Results as given in patent publication US9693994B2, “Class IIa HDAC inhibitors for the treatment of infection” (Research Development Foundation, priority 2014, dated 2017).
Where two headings read alike, the source gives them in different places.

How the values were obtained:
[1] = system: Bone Marrow Macrophages (BMMs); experiment: Cytokine mRNA and secretion in LPS-treated bone marrow macrophages; type: cell-based, mouse
[2] = LPS-induced sepsis: survival and circulating cytokines; type: in vivo, mice; settings: for effect on survival after LPS: wild-type/control mice
Experimental: Cytokine and Metabolite Analysis: Mice were injected with LPS (30 mg/kg) with or without Rolipram (5 mg/kg for 16 hours (h) and serum was obtained through cardiac puncture. BMMs were stimulated with LPS (10 ng/ml) with or without PGE2 (100 nM) for 16 hr and supernatant was collected.
All mice were housed in colony cages with a 12 hr light/dark cycle in a temperature-controlled environment. For LPS-induced sepsis, mice were injected intraperitoneally with 30 mg/kg LPS or PBS (UT). Survival after LPS was monitored. For studies with KO mice, age-matched wild-type littermates were employed as controls.

[3] = Glucose and insulin tolerance testing in HFD-fed mice; type: in vivo; settings: rolipram 7 days
Experimental: For HFD studies, 6-week-old mice were transferred to a 60% HFD (Research Diets, D12492) for 4 to 12 weeks as indicated. Magnetic resonance imaging scans for fat and lean mass were performed using an Echo MRI-100 instrument according to the manufacturer's instructions. For metabolic cage studies, mice were individually housed for at least 2 days. Food intake, total activity, oxygen consumption and carbon dioxide production were simultaneously measured for individually housed mice with a LabMaster system (TSE Systems). Data were collected for 2-3 days and analyzed. For glucose tolerance testing, mice were fasted for 16 h and then injected i.p. with glucose (1.5 g/kg). For insulin tolerance testing, mice were fasted 2 h and injected i.p. with insulin (Humulin; 1 U/kg). Rolipram (5 mg/kg/day) was injected i.p. for 7 days. Blood was collected from the tail vein and glucose levels were measured with a One Touch Ultra Glucometer (Johnson & Johnson).

histone deacetylase = settings: Yoshida et al., 1990; read-out: Ki, inhibitor of histone deacetylase; cited from earlier work
HDAC4 = HDAC4 dephosphorylation and localization in BMMs; type: cell-based, mouse; settings: wild-type BMMs, PGE2 in combination with LPS
Experimental: Bone marrow macrophage cells (BMMs) were prepared from mouse bone marrow cells as described (Weischenfeldt and Porse, 2008).

NF-κB subunit p65 = experiment: NF-κB signalling, immunoblot and ChIP in LPS-treated BMMs; type: cell-based, mouse
Experimental: Bone marrow macrophage cells (BMMs) were prepared from mouse bone marrow cells as described ([…] and Porse, 2008). BMMs were plated in 150-mm plates and exposed to LPS (10 ng/ml) with or without PGE2 (100 nM) for 1 hr. ChIP assays were performed as described (Screaton et al., 2004). RNA was isolated by RNeasy kit (Qiagen).

[4] = Leptin injection in ob/ob mice: norepinephrine, cAMP and HDAC4 in adipose

cholera toxin
cytokine gene expression [1]: lowered

COc1ccc(C2CNC(=O)C2)cc1OC1CCCC1 (stereo not shown) [Rolipram]
effect on LPS-induced cytokine release (circulating TNFα, IL12β) ([2]; C57BL/6J mice, LPS 30 mg/kg, Rolipram 5 mg/kg co-administered): blocked | effect on survival after LPS in HDAC4 MKO mice ([2]; HDAC4 MKO littermates, LPS plus rolipram): modest effects | effect on survival after LPS ([2]; LPS 30 mg/kg, Rolipram 5 mg/kg co-administered): blocked | effect on survival after LPS ([2]; LPS 30 mg/kg, Rolipram 5 mg/kg co-administered, listed as rolipram): improved survival | glucose tolerance and insulin sensitivity in HDAC4 MKO ([3]; HDAC4 MKO littermates on HFD): not | glucose tolerance and insulin sensitivity ([3]; wild-type mice on HFD): improved

CC(/C=C/C(=O)NO)=C\[C@@H](C)C(=O)c1ccc(N(C)C)cc1 [Trichostatin A, (2E,4E,6R)-7-(4-(Dimethylamino)phenyl)-N-hydroxy-4,6-dimethyl-7-oxo-2,4-heptadienamide]
Ki (histone deacetylase): ~3.4 nM

pertussis toxin
cytokine gene expression [1]: lowered

CN[C@@H]1C[C@H]2O[C@@](C)([C@@H]1OC)n1c3ccccc3c3c4c(c5c6ccccc6n2c5c31)C(=O)NC4 [staurosporine]
cytokine gene expression ([1]; BMMs exposed to LPS, pre-treatment with SIK inhibitor 10 nM): decreased

CCCCC[C@H](O)/C=C/[C@H]1[C@H](O)CC(=O)[C@@H]1C/C=C\CCCC(=O)O [PGE2, Prostaglandin E2]
HDAC4 dephosphorylation at Ser246 and nuclear translocation (HDAC4): triggered | activation of P38 or JNK, phosphorylation of IκBα or p65 in response to LPS (NF-κB subunit p65; BMMs, LPS plus PGE2): did not interfere | p65 recruitment to the TNFα and IL12β promoters (NF-κB subunit p65; BMMs, LPS plus PGE2 compared to LPS alone): reduced | amounts of acetylated p65 in HDAC4 MKO cells (NF-κB subunit p65; HDAC4 MKO BMMs, LPS plus PGE2): did not reduce | LPS-dependent increases in p65 and histone H4K5 acetylation over cytokine promoters (NF-κB subunit p65; wild-type BMMs, LPS plus PGE2): blocked | pro-inflammatory cytokine mRNA amounts and secretion ([1]; cultured BMMs exposed to LPS): reduced | IL10 mRNA and protein secretion ([1]; wild-type BMMs, LPS plus PGE2): upregulated

CC(C)NCC(O)COc1cccc2ccccc12 (stereo not shown) [propranolol]
leptin-induced HDAC4 de-phosphorylation in WAT ([4]; leptin plus propranolol): propranolol-sensitive | leptin-induced rise in cAMP ([4]; ob/ob mice, leptin plus β adrenergic antagonist): blocked

B1: leptin: hormone injected into ob/ob mice; triggers catecholamine-dependent increases in cAMP signaling (protein, UniProt P41160 22-167, looked up)
Leptin: VPIQKVQDDTKTLIKTIVTRINDISHTQSVSAKQRVTGLDFIPGLHPILSLSKMDQTLAVYQQVLTSLPSQNVLQIANDLENLRDLLHLLAFSKSCSLPQTSGLQKPESLDGVLEASLYSTEVVALSRLQGSLQDILQQLDVSPEC
HDAC4 de-phosphorylation in WAT ([4]; leptin administration): promoted | nuclear translocation of HDAC4 in adipose resident macrophages ([4]; leptin administration): stimulated | circulating concentrations of norepinephrine and cAMP content in epididymal fat pads ([4]; ob/ob mice, leptin injection): upregulated
